Five compounds from EP3954371B1, “ANTI-ACETYLCHOLINESTERASE ACTIVE COMPOSITION IN CAULIS MAHONIAE AND SCREENING METHOD THEREFOR AND APPLICATION THEREOF” (Shenzhen Institute for Drug Control (Shenzhen Testing …, priority 2019, dated 2021) can be followed below.

In general, IC50 refers to the concentration that inhibits the measured activity by half. The IC20 is the point of the concentration-response curve where the effect stands at 20%. One may read the IC80 as the point of the concentration-response curve where the effect stands at 80%. As usually defined, the IC90 is the point of the concentration-response curve where the effect stands at 90%.

The structures appear in SMILES notation.

The target in the first assay is T1, AChE (Homo sapiens, UniProt P22303).
T1 construct: purchased Sigma
T1 sequence (P22303 32-614): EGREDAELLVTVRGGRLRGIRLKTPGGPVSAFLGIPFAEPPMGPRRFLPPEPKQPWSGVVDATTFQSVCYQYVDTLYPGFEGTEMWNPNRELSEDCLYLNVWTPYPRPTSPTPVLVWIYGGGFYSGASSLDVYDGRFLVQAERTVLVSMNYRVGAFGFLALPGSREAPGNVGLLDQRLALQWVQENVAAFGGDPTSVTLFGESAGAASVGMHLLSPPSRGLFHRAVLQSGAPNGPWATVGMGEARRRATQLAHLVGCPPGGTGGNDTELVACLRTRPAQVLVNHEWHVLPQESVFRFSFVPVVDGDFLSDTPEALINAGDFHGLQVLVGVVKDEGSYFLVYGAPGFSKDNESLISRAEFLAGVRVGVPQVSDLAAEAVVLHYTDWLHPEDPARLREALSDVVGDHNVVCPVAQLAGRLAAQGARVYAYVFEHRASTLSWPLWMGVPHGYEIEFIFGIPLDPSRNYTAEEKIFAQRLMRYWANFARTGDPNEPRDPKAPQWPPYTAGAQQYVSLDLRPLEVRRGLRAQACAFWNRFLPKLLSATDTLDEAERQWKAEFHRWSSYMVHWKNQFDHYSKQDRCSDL
Test: not given
As to conditions: 20 µg/mL in ammonium acetate buffer (10 mM, pH = 7.4) for standards; FIGS. 4A, 4B, 5. It counts as binding.
As to `CCCC(=O)Nc1ccc(OCC(O)CNC(C)C)c(C(C)=O)c1` (centres unmarked) [acebutolol], the “retention on AChE-ICER / Control-ICER (specific binding)” value was “remains neither on AChE-ICER nor on enzyme-inactive Control-ICER”.

A further assay addresses T1, AChE. Put plainly: biochemical. As to conditions: mean ± standard deviation, repeated three times; 10 min at 37 °C, absorbance at 405 nm. As to the method: For the reaction system, see Table 3. The specific steps are described below.
140 µL of phosphate buffer (PBS, 0.1 mol/L, pH = 7.4), 20 µL of AChE (0.303 U/mL) and 20 µL of sample solution were added in sequence to a 96-well plate, mixed evenly, and added with 10 µL of DTNB (3.3 mM) and 10 µL of acetylthiocholine iodide (ATCI) (15 mM). They were mixed evenly and incubated for 10 min at 37 °C, then measured absorbance at 405 nm.
The sample was replaced with PBS in a blank enzyme group. The sample was replaced with PBS in a blank enzyme-free group. The enzyme solution was replaced with PBS in the sample control group.
The inhibitory rate of the sample against AChE activity is calculated by the following formula: Inhibitory rate = [1−(Asample−Asample control)/(Ablank enzyme−Ablank enzyme−free)] × 100% [formula]
The median inhibitory concentration of AChE was calculated by testing inhibitory rates at different sample concentrations. […] Table 3 Anti-AChE activity screening method
As for `COc1cc2c(cc1O)CC[n+]1cc3c(OC)c(OC)ccc3cc1-2` [Jat, jatrorrhizine], the IC50 is 10.3 µM.

The compound `COc1cc2c(cc1O)-c1cc3ccc(OC)c(OC)c3c[n+]1CC2` [Col, columbamine] showed an IC50 of 2.75 µM.

The compound `COc1cc2c(cc1OC)-c1cc3ccc(OC)c(OC)c3c[n+]1CC2` [Pal, palmatine] had an IC50 of 4.31 µM.

The target of another assay is T1, AChE. Put plainly: synergistic effect of combined active components (FIC) by AChE assay method. Conditions: first alkaloid diluted stepwise, other alkaloids fixed at IC30. It counts as biochemical. As to the method: One pharmaceutical component, compound A, was selected and diluted step by step according to 1:1; the concentration of a second pharmaceutical component, compound B, was fixed to IC30; based on a size of a fractional inhibitory concentration (FIC) value, the concentration of compound A was fixed, the concentration of pharmaceutical compound B was changed, and the FIC value was determined.
Fractional effects (FEs) of the two compounds are as follows: FEA = IC50 (A+B)/IC50 (A) [formula] FEB = IC50 (A+B)/IC50 (B) [formula] FIC = FEA + FEB [formula]
By analogy, all possible combinations were calculated. Table 4 Dilution concentration and fold
For `COc1ccc2cc3[n+](cc2c1OC)CCc1cc2c(cc1-3)OCO2` [Ber, berberine], the “effect of combinations when used as the first alkaloid” value (“effect of combinations when used” below) is recorded as “only the irrelevant effect or the antagonistic effect”.

With `COc1cc2c(cc1O)CC[n+]1cc3c(OC)c(OC)ccc3cc1-2` [Jat, jatrorrhizine], the “effect of combinations when used” value is listed as “significant synergistic effect”.

Consider `COc1cc2c(cc1O)-c1cc3ccc(OC)c(OC)c3c[n+]1CC2` [Col, columbamine], for which the “effect of combinations when used” value is given as “significant synergistic effect”.

On to `COc1cc2c(cc1OC)-c1cc3ccc(OC)c(OC)c3c[n+]1CC2` [Pal, palmatine], for which the “effect of combinations when used” value is on record as “only the irrelevant effect or the antagonistic effect”.

Staying with this assay, now noted: first compound diluted, added compounds fixed at IC30; unit not in table; read-out: IC Value (Standard Deviation) IC20.
For the compound `COc1ccc2cc3[n+](cc2c1OC)CCc1cc2c(cc1-3)OCO2` [Ber, berberine], the IC20 amounted to 0.26 µg/mL.

Take `COc1cc2c(cc1O)CC[n+]1cc3c(OC)c(OC)ccc3cc1-2` [Jat, jatrorrhizine]: the IC20 was found to be 0.39 µg/mL.

On to `COc1cc2c(cc1O)-c1cc3ccc(OC)c(OC)c3c[n+]1CC2` [Col, columbamine], for which the IC20 is 0.18 µg/mL.

Turning to `COc1cc2c(cc1OC)-c1cc3ccc(OC)c(OC)c3c[n+]1CC2` [Pal, palmatine], the IC20 came out at 0.1 µg/mL.

Staying with this assay, now noted: first compound diluted, added compounds fixed at IC30; unit not in table; read-out: IC Value (Standard Deviation) IC50 (converted).
For the compound `COc1cc2c(cc1O)CC[n+]1cc3c(OC)c(OC)ccc3cc1-2` [Jat, jatrorrhizine], the IC50 was 10.3 µM.

On to `COc1cc2c(cc1O)-c1cc3ccc(OC)c(OC)c3c[n+]1CC2` [Col, columbamine], for which the IC50 is 2.75 µM.

On to `COc1cc2c(cc1OC)-c1cc3ccc(OC)c(OC)c3c[n+]1CC2` [Pal, palmatine], for which the IC50 is 4.31 µM.

The same assay, now with this note: first compound diluted, added compounds fixed at IC30; unit not in table; read-out: IC Value (Standard Deviation) IC80.
With `COc1ccc2cc3[n+](cc2c1OC)CCc1cc2c(cc1-3)OCO2` [Ber, berberine], the IC80 stood at 24.1 µg/mL.

Take `COc1cc2c(cc1O)CC[n+]1cc3c(OC)c(OC)ccc3cc1-2` [Jat, jatrorrhizine]: the IC80 worked out at 31.4 µg/mL.

For `COc1cc2c(cc1O)-c1cc3ccc(OC)c(OC)c3c[n+]1CC2` [Col, columbamine], the concentration for an effect of 80% (IC80) amounted to 4.8 µg/mL.

As to `COc1cc2c(cc1OC)-c1cc3ccc(OC)c(OC)c3c[n+]1CC2` [Pal, palmatine], the IC80 was found to be 22.8 µg/mL.

The same assay, now with this note: first compound diluted, added compounds fixed at IC30; unit not in table; read-out: IC Value (Standard Deviation) IC90.
With `COc1ccc2cc3[n+](cc2c1OC)CCc1cc2c(cc1-3)OCO2` [Ber, berberine], the IC90 was 50.2 µg/mL.

On to `COc1cc2c(cc1O)CC[n+]1cc3c(OC)c(OC)ccc3cc1-2` [Jat, jatrorrhizine], for which the IC90 was determined as 63.2 µg/mL.

Turning to `COc1cc2c(cc1O)-c1cc3ccc(OC)c(OC)c3c[n+]1CC2` [Col, columbamine], the IC90 was 12.5 µg/mL.

On to `COc1cc2c(cc1OC)-c1cc3ccc(OC)c(OC)c3c[n+]1CC2` [Pal, palmatine], for which the IC90 amounted to 48.3 µg/mL.
